Results from patent US12041939B2, “Enzyme-loaded pollen-mimicking microparticles for organophosphate detoxification of insect pollinators” (priority 2020, dated 2024).
Like-named read-outs stand apart in the source and are kept apart here.

Legend:
[1] = system: acetylcholinesterase (AChE); conditions: versus malathion; cited from earlier work
honeybees = conditions: cited from earlier work
bumblebees [2] = experiment: contaminated pollen balls fed without enzyme treatment; conditions: no enzyme treatment, after one week
AChE = AChE activity assay in homogenized honeybees with paraoxon; type: biochemical, honeybee; conditions: 0.5 mM paraoxon
Excerpt: FIGS. 5A-5F. Characterization of OPT-PIM efficacy through AChE activity assay and bee survival experiments. FIG. 5A is a schematic showing that formation of thiocholine from acetylthiocholine through AChE cleavage can be characterized using 5,5′-dithiobis-2-nitrobenzoic acid (DTNB). DTNB and thiocholine react to form TNB^2-, the absorbance of which can be measured at 412 nm. […] For this experiment, n=9. The positive control is homogenized honeybee cells without any paraoxon treatment; the negative control is homogenized honeybee cells treated with paraoxon but no free OPT or OPT-PIMs treatment. […]. […] FIG. 5E is a plot of exposure to paraoxon (15 μg g^−1 pollen) over 10 days (n=50). FIG. 5F is a plot of exposure to malathion (750 μg g^−1 pollen) over 10 days (n=50). Statistical analysis was performed by using one-way ANOVA tests (FIGS. 5B and 5D). Data are presented as means and error bars represent the standard deviation.
Efficacy and survival studies. The characterization of OPT-PIM efficacy was further validated via quantification of AChE activity when mixed with the above described treatment and paraoxon. […] Acetylthiocholine cleavage via AChE can be used to quantify AChE activity, as the thiocholine product reacts with DTNB to form TNB^2−, which has an absorbance at 412 nm (FIG. 5A). […]

[3] = type: biochemical
Experimental: Further experiments were aimed at better understanding the stability of the detoxifying system under significant thermal stress, as any treatment could experience high summer temperatures when administered to bees. […] Thus, experiments were conducted to determine whether microparticle encapsulation offers any protection from thermal denaturation. […]. […] The foregoing result is important for the potential application of the present design, as it has been shown capable of being administered at elevated temperatures.

[4] = type: biochemical; conditions: room temperature (25° C.)
Experimental: To gauge the time taken for treatment to lose functionality, bioactivity of each group treatment relative to OPT-PIMs was measured over time when kept at room temperature (25° C.). […] OPT-PIMs stored at 4° C. maintained almost 100% activity after 14 d (FIG. 3G). The microparticle's capacity for long-term bioactivity and protein sequestration indicates a practical shelf life of the design. Other enzyme-engineering efforts, such as genetic engineering of the catalytic and binding pockets, introducing additional chemical functionalities, such as disulfide bridges or fluorine moieties, or incorporation of additives such as sugars, polyols, detergents, polymers and amino acids, may improve the catalytic efficiency of OPT and further enhance its storage stability.

bumblebees [5] = experiment: bumblebee survival on malathion-contaminated pollen balls; type: in vivo, Bombus impatiens
Excerpt: (§1) FIGS. 5A-5F. Characterization of OPT-PIM efficacy through AChE activity assay and bee survival experiments. FIG. 5A is a schematic showing that formation of thiocholine from acetylthiocholine through AChE cleavage can be characterized using 5,5′-dithiobis-2-nitrobenzoic acid (DTNB). DTNB and thiocholine react to form TNB^2-, the absorbance of which can be measured at 412 nm. […] For this experiment, n=9. The positive control is homogenized honeybee cells without any paraoxon treatment; the negative control is homogenized honeybee cells treated with paraoxon but no free OPT or OPT-PIMs treatment. […] FIG. 5E is a plot of exposure to paraoxon (15 μg g^−1 pollen) over 10 days (n=50). FIG. 5F is a plot of exposure to malathion (750 μg g^−1 pollen) over 10 days (n=50). Statistical analysis was performed by using one-way ANOVA tests (FIGS. 5B and 5D). Data are presented as means and error bars represent the standard deviation.
(§2) Bumblebees consume approximately […] depending on body mass. Based on this figure, pollen balls were initially formed containing 0.432 μg g^−1 paraoxon and 9.383 μg g^−1 malathion to feed without enzyme treatment as a negative control. […] Pollen balls were tested containing 50 μg g^−1 paraoxon over 12 hours to measure the OPT-PIM impact against acute exposure.

[6] = cited from earlier work
bumblebees [7] = type: in vivo, Bombus impatiens
Excerpt: as §1, §2

[8] = type: biochemical; conditions: for relative activity in paraoxon hydrolysis: OPT 0.5 mg ml^−1, 0.5 mM paraoxon, normalized to OPT-PIMs at pH 7.4
[9] = type: biochemical; conditions: methyl paraoxon, visible nitrophenol formation
Excerpt: Considering the loading efficiency decrease at higher PFCs and the intrinsic value of OPT, 5% was selected as a baseline to test OPT loading in PIMs. OPT presented 88.1% PLE (PLC=4.43%) at 5% PFC and 90.1% PLE (PLC=1.81%) at 2% PFC (FIG. 3C). […]. this dilution offered adequate sucrose to render the solution sufficiently attractive to bumblebees for consumption.

[10] = malathion hydrolysis assay (DTNB); type: biochemical; conditions: OPT 0.5 mg ml^−1, 0.44 mM malathion
[11] = cited from earlier work; remark: listed apart in the source

Compound: CCOC(=O)CC(SP(=O)(OC)OC)C(=O)OCC (centres unmarked) [Malaoxon]
- strength of AChE inhibition relative to malathion [1]: 1000 fold

Compound: CCOC(=O)CC(SP(=S)(OC)OC)C(=O)OCC (centres unmarked) [malathion]
- oral LD50 (honeybees): 0.38 μg/bee
- oral LD50 for honeybees (honeybees): 0.38 μg per bee
- health effect of contaminated pollen balls (bumblebees [2]; 9.383 μg g^−1 malathion in pollen balls): no health deterioration

Compound: CCOP(=O)(OCC)Oc1ccc([N+](=O)[O-])cc1 [paraoxon]
- relative AChE activity reduction (AChE; no free OPT or OPT-PIMs treatment (negative control)): ~72%
- oral LD50 for honeybees (honeybees): 0.0175 μg per bee
- health effect of contaminated pollen balls (bumblebees [2]; 0.432 μg g^−1 paraoxon in pollen balls): no health deterioration

Compound: CCOP(=S)(OCC)Oc1ccc([N+](=O)[O-])cc1 [parathion]
- oral LD50 (honeybees): 0.175 μg/bee

Compound: amidohydrolase phosphotriesterase [free OPT]
- AChE activity retained less than OPT-PIMs-treated samples (AChE): 18.8%
- relative activity in paraoxon hydrolysis after incubation ([3]; 30° C., relative to OPT-PIMs at 30° C.): half the bioactivity of OPT-PIMs
- relative activity in paraoxon hydrolysis after incubation ([3]; 50° C., normalized to OPT-PIMs at 30° C.): 36.5%
- relative activity in paraoxon hydrolysis after incubation ([3]; temperature>60° C., normalized to OPT-PIMs at 30° C.): 5.0%
- activity retained on storage ([4]; after 7 days): ~30%
- activity retained on storage ([4]; after 14 days): < 10%
- mortality (bumblebees [5]; 750 μg g^−1 malathion pollen balls, after 5 days): 100%
- survival (bumblebees [5]; microcolonies fed malathion-contaminated pollen patties, within/after 5 days (overview)): 0%
- deactivation temperature ([6]; Co2+ OPT complex, pH 8.0-9.5): 60 °C
- temperature at which thermostability is maintained ([6]; Co2+ OPT complex, pH 8.0-9.5): less than 45 °C
- activity relative to maximum potential ([6]; pH 7.0): less than half of its maximum potential
- mortality (bumblebees [7]; 15 μg g^−1 paraoxon pollen balls, 50 μg ml^−1 OPT treatments, after 5 days): 100%
- fatalities (bumblebees [7]; 50 μg g^−1 paraoxon pollen balls, 12 hours): 62.5%
- relative activity in paraoxon hydrolysis ([8]; pH 4.8): 1.7%
- relative activity in paraoxon hydrolysis ([8]; pH 7.4): 49.7%
- Km ([8]; paraoxon, in 2 g ml^−1 sucrose): 4.8 mM
- maximum velocity (Vmax) ([8]; paraoxon, in 2 g ml^−1 sucrose): 0.13 mM/min
- OPT concentration sufficient to initiate rapid hydrolysis [9]: 0.5 mg/mL
- relative activity in malathion hydrolysis ([10]; pH 4.8): 0.6%
- relative activity in malathion hydrolysis ([10]; pH 7.4): 17.1%
- Kcat Km^−1 [11]: 7.6e+07 M⁻¹ s⁻¹
